Reference: patent US20060276464A1, “Diarylsulfone sulfonamides and use thereof” (Wyeth, priority 2005, published 2006)
Several values for one entry are separate records, joined by “and”; a condition that tells them apart may be missing. Identical values can stand only once. Like-named read-outs stand apart in the source and are kept apart here.

Columns and labels:
SFRP-1 [1] = target: T1, SFRP-1 (Homo sapiens, UniProt Q8N474); experiment: Fluorescence polarization binding assay (competitive displacement of a probe compound from SFRP-1); conditions: fluorescence anisotropy, 45 nM SFRP-1, 20 nM probe;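 further: test compound competes with a fluorescent probe held by SFRP-1, seen as a drop in probe anisotropy after incubation in darkness, with anisotropy as function of rising compound dose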
T1 sequence (Q8N474 32-314): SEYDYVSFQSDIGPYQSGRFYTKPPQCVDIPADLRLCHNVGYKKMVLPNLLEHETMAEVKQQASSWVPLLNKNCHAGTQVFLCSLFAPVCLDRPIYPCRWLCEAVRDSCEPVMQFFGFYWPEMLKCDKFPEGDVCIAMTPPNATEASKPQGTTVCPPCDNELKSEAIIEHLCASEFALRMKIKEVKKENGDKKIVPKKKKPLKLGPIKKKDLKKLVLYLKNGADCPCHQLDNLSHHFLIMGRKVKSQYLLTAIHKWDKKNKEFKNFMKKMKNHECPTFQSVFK

SFRP-1 [2] = target: T1, SFRP-1; experiment: Cell-based assay for in vitro measurement of SFRP-1/SARP2 antagonist activity (U2OS cells co-transfected with 16x TCF-tk-Luciferase reporter, Wnt and hSFRP-1); conditions: for fold induction at 10 µM / fold induction at 15 µM: U2OS;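 on all read-outs here: U2OS cells co-transfected with a TCF-tk luciferase reporter, a Wnt vector, hSFRP-1 or empty vector and CMV-βgal, luciferase luminescence read in cell lysates alongside βgal activity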
[3] = read-out: Fold Induction with SFRP-1, U2OS cells, single dose 10 μM, luciferase reporter, fold induction over SFRP-1 control
[4] = read-out: Fold Induction with SFRP-1, Conc 15 μM, single dose, luciferase reporter, fold induction over SFRP-1 control, cells with SFRP-1
[5] = read-out: Fold Induction without SFRP-1, Conc 15 μM, single dose, luciferase reporter, cells without SFRP-1 (specificity control)

Row | Structure (SMILES) | IC50 (SFRP-1 [1]) | EC50 (SFRP-1 [2]) [nM] | fold induction at 10 µM (SFRP-1 [2]; [3]) | further results
1 | O=S(=O)(NC1CCNCC1)c1cc(S(=O)(=O)c2cccc(Br)c2)ccc1C(F)(F)F [Example 1034, 5-[(3-bromophenyl)sulfonyl]-N-piperidin-4-yl-2-(trifluoromethyl)benzenesulfonamide] | 500 nM | 1670 |  | 
2 | O=C(c1cc(F)cc(F)c1)N1CCC(NS(=O)(=O)c2cc(S(=O)(=O)c3ccccc3)ccc2C(F)(F)F)CC1 [Example 706, N-[1-(3,5-difluorobenzoyl)piperidin-4-yl]-5-(phenylsulfonyl)-2-(trifluoromethyl)benzenesulfonamide] | 180 nM | 503 | 3.7 | 
3 | CCCc1ccc(S(=O)(=O)c2ccc(F)cc2)cc1S(=O)(=O)NC1CCCC1 [Example 563, N-Cyclopentyl-5-[(4-fluorophenyl)sulfonyl]-2-propylbenzenesulfonamide] | 3000 nM |  |  | fold induction at 15 µM (SFRP-1 [2]; [4]): 2.8; fold induction at 15 µM (SFRP-1 [2]; [5]): 1.2
4 | CC(CO)NS(=O)(=O)c1cc(S(=O)(=O)c2ccc(F)cc2)ccc1C(C)C (stereo not shown) [Example 733, 5-[(4-fluorophenyl)sulfonyl]-N-(2-hydroxy-1-methylethyl)-2-isopropylbenzenesulfonamide] | 10000 nM |  | 2.5 | 
5 | COc1ccc(S(=O)(=O)c2ccc(C(F)(F)F)c(S(=O)(=O)NCCC#N)c2)cc1 [Example 820, N-(2-cyanoethyl)-5-[(4-methoxyphenyl)sulfonyl]-2-(trifluoromethyl)benzenesulfonamide] | 250 nM | 797 | 4.1 | 
6 | O=C(O)c1cccc(S(=O)(=O)N2CCC(CNS(=O)(=O)c3cc(S(=O)(=O)c4ccccc4)ccc3C(F)(F)F)CC2)c1 [Example 904, 3-({4-[({[5-(phenylsulfonyl)-2-(trifluoromethyl)phenyl]sulfonyl}amino)methyl]piperidin-1-yl}sulfonyl)benzoic acid] | 60 nM | 700 | 3.5 | 
7 | COc1cccc(S(=O)(=O)c2ccc(C(F)(F)F)c(S(=O)(=O)NCCC#N)c2)c1 [Example 745, N-(2-cyanoethyl)-5-[(3-methoxyphenyl)sulfonyl]-2-(trifluoromethyl)benzenesulfonamide] | 400 nM | 631 | 4.5 | 
8 | O=C(O)c1cccc(S(=O)(=O)Nc2ccc(CNS(=O)(=O)c3cc(S(=O)(=O)c4ccccc4)ccc3C(F)(F)F)cc2)c1 [Example 963] | 300 nM | 1160 | 3.5 | 
9 | Cc1ccc(S(=O)(=O)c2ccc(F)cc2)cc1S(=O)(=O)NC1CCN(C(=O)N2CCOCC2)CC1 [Example 603, 5-[(4-fluorophenyl)sulfonyl]-2-methyl-N-[1-(morpholin-4-ylcarbonyl)piperidin-4-yl]benzenesulfonamide] | 8000 nM |  |  | fold induction at 15 µM (SFRP-1 [2]; [4]): 2.4; fold induction at 15 µM (SFRP-1 [2]; [5]): 0.9
10 | Cc1ccc(S(=O)(=O)c2ccccc2)cc1S(=O)(=O)NC1CCN(C(=O)N2CCOCC2)CC1 [Example 502, 2-methyl-N-[1-(morpholin-4-ylcarbonyl)piperidin-4-yl]-5-(phenylsulfonyl)benzenesulfonamide] | 3000 nM |  |  | fold induction at 15 µM (SFRP-1 [2]; [4]): 2.9; fold induction at 15 µM (SFRP-1 [2]; [5]): 1
11 | Cc1cc(C)c(S(=O)(=O)c2ccccc2)cc1S(=O)(=O)NC1CCN(C(=O)OC(C)(C)C)CC1 [Example 911, tert-butyl 4-({[2,4-dimethyl-5-(phenylsulfonyl)phenyl]sulfonyl}amino)piperidine-1-carboxylate] | 4000 nM | 2420 | 1.9 | 
12 | COC(=O)C1CCCC(NS(=O)(=O)c2cc(S(=O)(=O)c3ccccc3)ccc2C(C)C)C1 (stereo not shown) [Example 932, methyl 3-({[2-isopropyl-5-(phenylsulfonyl)phenyl]sulfonyl}amino)cyclohexanecarboxylate] | 3000 nM | 1860 | 2.8 | 
13 | O=S(=O)(NC1Cc2ccccc2C1O)c1cc(S(=O)(=O)c2ccccc2)ccc1C(F)(F)F (stereo not shown) [Example 900, N-(1-hydroxy-2,3-dihydro-1H-inden-2-yl)-5-(phenylsulfonyl)-2-(trifluoromethyl)benzenesulfonamide] | 80 nM |  | 4.1 | 
14 | CN(CCNS(=O)(=O)c1cc(S(=O)(=O)c2ccccc2)ccc1C(F)(F)F)C(=O)Oc1ccc(F)cc1 [Example 872, 4-fluorophenyl methyl[2-({[5-(phenylsulfonyl)-2-(trifluoromethyl)phenyl]sulfonyl]amino)ethyl]carbamate] | 600 nM | 1950 |  | fold induction at 10 µM (SFRP-1 [2]; read-out: Fold Induction with SFRP-1): 3.1
15 | CN(CCNS(=O)(=O)c1cc(S(=O)(=O)c2ccccc2)ccc1C(F)(F)F)C(=O)Nc1ccccc1 [Example 826, N-{2-[(anilinocarbonyl)(methyl)amino]ethyl}-5-(phenylsulfonyl)-2-(trifluoromethyl)benzenesulfonamide] | 700 nM | 1920 | 3.5 | 
16 | CC(C)c1ccc(S(=O)(=O)c2ccccc2)cc1S(=O)(=O)NCc1ccncc1 [Example 936, 2-isopropyl-5-(phenylsulfonyl)-N-(pyridin-4-ylmethyl)benzenesulfonamide] | 3000 nM | 1820 | 2.7 | 
17 | C[C@@H](CO)NS(=O)(=O)c1cc(S(=O)(=O)c2ccccc2)ccc1C(F)(F)F [Example 725, N-[(1S)-2-hydroxy-1-methylethyl]-5-(phenylsulfonyl)-2-(trifluoromethyl)benzenesulfonamide] | 500 nM | 1260 | 3.1 | 
18 | O=C(c1ccc(F)cc1)N1CCC(NS(=O)(=O)c2cc(S(=O)(=O)c3ccccc3)ccc2Cl)CC1 [Example 656, 2-chloro-N-[1-(4-fluorobenzoyl)piperidin-4-yl]-5-(phenylsulfonyl)benzenesulfonamide] | 2800 nM | 11700 | 2.2 | 
19 | CNc1ccc(S(=O)(=O)c2ccc(C(C)C)c(S(=O)(=O)NCCc3ccccn3)c2)c(C)c1 [Example 599, 2-isopropyl-5-{[2-methyl-4-(methylamino)phenyl]sulfonyl}-N-(2-pyridin-2-ylethyl)benzenesulfonamide] | 600 nM |  |  | fold induction at 15 µM (SFRP-1 [2]; [4]): 4.2; fold induction at 15 µM (SFRP-1 [2]; [5]): 1.4
20 | COc1ccc2c(c1)C(O)C(NS(=O)(=O)c1cc(S(=O)(=O)c3ccccc3)ccc1C(F)(F)F)C2 (stereo not shown) [Example 1044, N-(1-hydroxy-6-methoxy-2,3-dihydro-1H-inden-2-yl)-5-(phenylsulfonyl)-2-(trifluoromethyl)benzenesulfonamide] | 500 nM | 1340 |  | 
21 | CC(C)c1ccc(S(=O)(=O)c2ccccc2)cc1S(=O)(=O)NC[C@H]1CC[C@H](C(=O)O)CC1 [Example 954, trans-4-[({[2-isopropyl-5-(phenylsulfonyl)phenyl]sulfonyl}amino)methyl]cyclohexanecarboxylic acid] | 900 nM | 5570 | 2.2 | 
22 | CC(C)(C)OC(=O)N1CCC(NS(=O)(=O)c2cc(S(=O)(=O)c3ccccc3)ccc2C(F)(F)F)CC1 [Example 687, tert-butyl 4-({[5-(phenylsulfonyl)-2-(trifluoromethyl)phenyl]sulfonyl}amino)piperidine-1-carboxylate] | 500 nM | 261 | 3.2 | 
23 | CCc1ccc(S(=O)(=O)c2ccccc2)cc1S(=O)(=O)NCCCn1ccnc1 [Example 231, 2-ethyl-N-[3-(1H-imidazol-1-yl)propyl]-5-(phenylsulfonyl)benzenesulfonamide] | 300 nM and 600 nM |  |  | Fold Induction with SFRP-1 (SFRP-1 [2]; Conc 15 μM, with SFRP-1, fold induction over SFRP-1 control, single dose): 2.8 fold; Fold Induction without SFRP-1 (SFRP-1 [2]; Conc 15 μM, without SFRP-1, single dose): 0.8 fold; fold induction at 15 µM (SFRP-1 [2]; read-out: Fold Induction with SFRP-1, Conc 15 μM, with SFRP-1, fold induction over SFRP-1 control, single dose): 3.4; fold induction at 15 µM (SFRP-1 [2]; read-out: Fold Induction without SFRP-1, Conc 15 μM, without SFRP-1, single dose): 1
24 | CN(CCNS(=O)(=O)c1cc(S(=O)(=O)c2ccccc2)ccc1C(F)(F)F)C(=O)N(C)C1CCNCC1 [Example 1007, N-[2-(methyl{[methyl(piperidin-4-yl)amino]carbonyl}amino)ethyl]-5-(phenylsulfonyl)-2-(trifluoromethyl)benzenesulfonamide] | 900 nM | 1520 |  | 
25 | O=C(O)CN1CCCC1CCNS(=O)(=O)c1cc(S(=O)(=O)c2ccccc2)ccc1C(F)(F)F (stereo not shown) [Example 918, {2-[2-({[5-(phenylsulfonyl)-2-(trifluoromethyl)phenyl]sulfonyl}amino)ethyl]pyrrolidin-1-yl}acetic acid] | 4000 nM | 2980 | 1.6 | 
26 | CC(C)(C)c1ccc(C(=O)N2CCC(NS(=O)(=O)c3cc(S(=O)(=O)c4cccc(Cl)c4)ccc3C(F)(F)F)CC2)cc1 [Example 753, N-[1-(4-tert-butylbenzoyl)piperidin-4-yl]-5-[(3-chlorophenyl)sulfonyl]-2-(trifluoromethyl)benzenesulfonamide] | 700 nM |  | 3.8 | 
27 | CN(CCCNS(=O)(=O)c1cc(S(=O)(=O)c2ccccc2)ccc1C(F)(F)F)C(=O)CCC(=O)O [Example 992, 4-{methyl[3-({(5-(phenylsulfonyl)-2-(trifluoromethyl)phenyl]sulfonyl}amino)propyl]amino}-4-oxobutanoic acid] | 700 nM | 3160 |  | 
